According to paper PMC7497641, “Neurotropic activity and safety of methylene-cycloalkylacetate (MCA) derivative 3-(3-allyl-2-methylenecyclohexyl) propanoic acid” (ACS Chemical Neuroscience, 2020):

Key:
[1] = molecular target: T1, Opioid Receptor Delta 1 (OPRD1) (Homo sapiens, UniProt P41143); experiment: SAFETYscan GPCR cAMP; format: cell-based
T1 construct: host or cells: cAMP Hunter cell lines

[2] = tested on: adult rat spinal cord primary cultures; experiment: Spinal cord neurons neurite outgrowth assay; format: cell-based; conditions: 10 μM HU-MCA-13
Method: To study the effect of HU-MCA-13 on adult rat spinal cord primary cultures in vitro, we developed a purification procedure that yields enriched different types of spinal cord neuronal cultures. This neurotropic assay was performed using vehicle 1% DMSO in DMEM as control and 10 μM HU-MCA-13. The results in Figure 1 bottom row and Figure 3D clearly indicate that in control there was very poor spontaneous neurite outgrowth of a total length of about 180 μm and NGF induced neurite outgrowth to a total length of about 800 μm. Similarly, HU-MCA-13 induced a neurite outgrowth of 600 μm. Figure 2B indicates cytoskeletal-tubulin protein expression in the cultured neurons. These findings further extend the neurotropic effect of HU-MCA-13 to spinal cord neurons, in addition to DRGs and PC12 cells.
Spinal cords were isolated from adult rats (4–6 months old), and the meninges were removed from the spinal cord. The spinal cord was then cut into small pieces and collected in cold Hibernate A (Brainbits, Springfield, IL, USA), glutamine (0.5 mM), and B27 (Invitrogen, Carlsbad, CA). […] Neurite outgrowth was measured and presented as mean length of a neurite (microns). To measure neuronal survival, 450 cells were counted in 10 randomly chosen microscope fields of a known area in each of the three dishes per condition using a 20× objective and phase-contrast optics. […]

[3] = molecular target: Muscarinic acetylcholine Receptor M1 (CHRM1) (Homo sapiens, UniProt P11229); experiment: cell-based; conditions: Calcium Flux, read-out: RC50 (the source's name)
Sequence of Muscarinic acetylcholine Receptor M1 (CHRM1) (P11229 whole entry): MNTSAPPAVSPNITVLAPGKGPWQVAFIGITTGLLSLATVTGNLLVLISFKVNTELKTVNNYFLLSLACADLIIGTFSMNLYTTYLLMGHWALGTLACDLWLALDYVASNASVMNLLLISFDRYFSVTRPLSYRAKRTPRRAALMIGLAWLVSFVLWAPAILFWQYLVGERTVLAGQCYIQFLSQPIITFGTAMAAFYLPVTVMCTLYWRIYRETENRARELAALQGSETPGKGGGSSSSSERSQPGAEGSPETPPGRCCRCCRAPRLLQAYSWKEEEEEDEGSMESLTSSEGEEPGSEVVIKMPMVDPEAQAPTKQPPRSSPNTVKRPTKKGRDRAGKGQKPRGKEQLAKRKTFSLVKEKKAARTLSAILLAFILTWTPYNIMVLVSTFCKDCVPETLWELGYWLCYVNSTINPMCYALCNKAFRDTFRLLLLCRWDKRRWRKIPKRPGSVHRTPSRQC

[4] = molecular target: Histamine Receptor H1 (HRH1) (Homo sapiens, UniProt P35367); experiment: SAFETYscan GPCR Calcium Flux; format: cell-based; conditions: read-out: RC50 (the source's name)
Sequence of Histamine Receptor H1 (HRH1) (P35367 whole entry): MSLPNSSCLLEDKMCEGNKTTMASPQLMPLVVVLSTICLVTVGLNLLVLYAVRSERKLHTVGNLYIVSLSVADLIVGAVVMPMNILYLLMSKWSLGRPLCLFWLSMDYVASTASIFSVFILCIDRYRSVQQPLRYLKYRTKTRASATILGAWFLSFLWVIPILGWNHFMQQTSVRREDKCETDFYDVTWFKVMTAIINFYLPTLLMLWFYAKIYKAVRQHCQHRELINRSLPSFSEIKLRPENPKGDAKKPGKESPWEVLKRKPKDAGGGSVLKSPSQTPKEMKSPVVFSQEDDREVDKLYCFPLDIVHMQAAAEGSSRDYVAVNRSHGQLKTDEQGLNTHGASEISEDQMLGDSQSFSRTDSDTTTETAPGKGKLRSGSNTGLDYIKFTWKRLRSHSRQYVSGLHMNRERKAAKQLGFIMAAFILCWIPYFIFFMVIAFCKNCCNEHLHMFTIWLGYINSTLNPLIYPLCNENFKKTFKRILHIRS

[5] = molecular target: 5-Hydroxy tryptamine (Serotonin) Receptor 2A (HTR2A) (Homo sapiens, UniProt P28223); experiment: SAFETYscan GPCR Calcium Flux; format: cell-based
Sequence of 5-Hydroxy tryptamine (Serotonin) Receptor 2A (HTR2A) (P28223 whole entry): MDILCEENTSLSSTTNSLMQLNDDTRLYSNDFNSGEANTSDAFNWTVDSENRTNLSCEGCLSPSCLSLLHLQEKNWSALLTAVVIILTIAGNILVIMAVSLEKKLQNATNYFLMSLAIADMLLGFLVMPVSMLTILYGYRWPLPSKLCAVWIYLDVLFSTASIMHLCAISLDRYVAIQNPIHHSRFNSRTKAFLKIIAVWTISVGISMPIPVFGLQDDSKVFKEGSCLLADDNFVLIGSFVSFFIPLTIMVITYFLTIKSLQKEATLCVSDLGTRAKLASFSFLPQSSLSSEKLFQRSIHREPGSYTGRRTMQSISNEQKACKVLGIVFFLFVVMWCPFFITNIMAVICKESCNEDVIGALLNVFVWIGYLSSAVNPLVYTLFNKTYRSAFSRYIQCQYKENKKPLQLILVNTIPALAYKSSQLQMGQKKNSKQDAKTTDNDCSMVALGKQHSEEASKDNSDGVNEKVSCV

[6] = molecular target: T2, Acetylcholinesterase (AChE) (Homo sapiens, UniProt P22303); experiment: SAFETYscan Enzymatic assay; format: biochemical
T2 construct: purchased R&D Systems
T2 sequence (P22303 32-614): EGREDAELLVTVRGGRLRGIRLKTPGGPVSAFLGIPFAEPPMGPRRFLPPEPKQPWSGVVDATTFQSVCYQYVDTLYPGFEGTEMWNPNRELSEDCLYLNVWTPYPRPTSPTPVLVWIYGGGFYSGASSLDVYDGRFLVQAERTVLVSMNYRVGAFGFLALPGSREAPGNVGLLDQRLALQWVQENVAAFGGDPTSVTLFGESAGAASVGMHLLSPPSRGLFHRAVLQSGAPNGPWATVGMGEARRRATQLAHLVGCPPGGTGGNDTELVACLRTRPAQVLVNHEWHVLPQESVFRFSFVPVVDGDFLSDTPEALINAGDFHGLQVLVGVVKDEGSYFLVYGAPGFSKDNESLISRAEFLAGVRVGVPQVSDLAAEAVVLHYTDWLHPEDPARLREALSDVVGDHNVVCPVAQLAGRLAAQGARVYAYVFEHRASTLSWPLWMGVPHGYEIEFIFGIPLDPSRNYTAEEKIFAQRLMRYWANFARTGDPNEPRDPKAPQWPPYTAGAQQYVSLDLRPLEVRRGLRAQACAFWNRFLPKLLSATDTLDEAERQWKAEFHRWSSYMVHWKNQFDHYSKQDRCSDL

[7] = Blood hematology and biochemistry after intravenous injection; format: in vivo; conditions: 250 mg/kg IV; 24 h from injection
[8] = tested on: PGE2 production in PC12 cells; experiment: PGE2 production measured by ELISA; conditions: different concentrations of HU-MCA-13, dose-dependent; 24 h
[9] = molecular target: T3, Adrenergic Receptor α2A (ADRA2A) (Homo sapiens, UniProt P08913); experiment: SAFETYscan GPCR cAMP; format: cell-based
T3 construct: host or cells: cAMP Hunter cell lines
T3 sequence (P08913 whole entry): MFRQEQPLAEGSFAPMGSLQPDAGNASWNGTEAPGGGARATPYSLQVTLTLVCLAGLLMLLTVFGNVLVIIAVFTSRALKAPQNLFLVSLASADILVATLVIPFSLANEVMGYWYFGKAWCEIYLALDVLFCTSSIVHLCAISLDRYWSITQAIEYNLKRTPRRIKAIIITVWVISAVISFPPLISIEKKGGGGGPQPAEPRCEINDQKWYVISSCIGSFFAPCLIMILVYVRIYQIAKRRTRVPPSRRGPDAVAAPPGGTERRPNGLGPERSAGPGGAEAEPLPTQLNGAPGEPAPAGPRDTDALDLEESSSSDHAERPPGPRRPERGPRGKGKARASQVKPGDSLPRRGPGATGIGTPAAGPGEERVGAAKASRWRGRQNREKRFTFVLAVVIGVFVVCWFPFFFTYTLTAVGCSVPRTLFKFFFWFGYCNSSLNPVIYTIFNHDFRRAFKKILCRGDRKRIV

Cyclooxygenase 1 (COX 1) = molecular target: T4, Cyclooxygenase 1 (COX 1) (Homo sapiens, UniProt P23219); experiment: biochemical; conditions: Inhibitor, Enzymatic
T4 construct: purchased BPS Bioscience

[10] = molecular target: Histamine Receptor H2 (HRH2) (Homo sapiens, UniProt P25021); experiment: SAFETYscan GPCR cAMP; format: cell-based; conditions: read-out: RC50 (the source's name)
Sequence of Histamine Receptor H2 (HRH2) (P25021 whole entry): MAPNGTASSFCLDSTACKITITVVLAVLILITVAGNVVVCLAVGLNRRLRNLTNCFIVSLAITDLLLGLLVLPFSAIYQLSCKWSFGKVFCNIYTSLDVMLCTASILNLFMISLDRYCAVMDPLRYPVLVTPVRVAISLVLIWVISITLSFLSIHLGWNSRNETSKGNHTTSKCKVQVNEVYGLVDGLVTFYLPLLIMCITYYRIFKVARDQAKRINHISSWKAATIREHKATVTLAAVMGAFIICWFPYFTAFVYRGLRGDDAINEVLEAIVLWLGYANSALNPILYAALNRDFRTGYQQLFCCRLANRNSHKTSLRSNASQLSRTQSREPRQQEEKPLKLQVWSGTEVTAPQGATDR

[11] = molecular target: T5, Dopamine Receptor D1 (DRD1) (Homo sapiens, UniProt P21728); experiment: SAFETYscan GPCR cAMP; format: cell-based
T5 construct: host or cells: cAMP Hunter cell lines
T5 sequence (P21728 whole entry): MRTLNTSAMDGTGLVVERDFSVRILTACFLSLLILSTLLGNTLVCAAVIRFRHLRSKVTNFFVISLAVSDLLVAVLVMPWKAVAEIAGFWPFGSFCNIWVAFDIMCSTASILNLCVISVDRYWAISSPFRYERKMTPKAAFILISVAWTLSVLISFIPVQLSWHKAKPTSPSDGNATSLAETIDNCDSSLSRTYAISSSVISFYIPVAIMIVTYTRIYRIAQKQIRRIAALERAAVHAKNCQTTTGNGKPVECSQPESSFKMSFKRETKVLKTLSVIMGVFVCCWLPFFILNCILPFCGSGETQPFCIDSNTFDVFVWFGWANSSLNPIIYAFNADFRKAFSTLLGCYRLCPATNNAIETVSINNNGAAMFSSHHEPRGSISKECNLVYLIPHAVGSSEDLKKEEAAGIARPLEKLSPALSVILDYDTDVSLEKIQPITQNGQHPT

[12] = molecular target: T6, Vascular endothelial growth factor receptor 2 (KDR tyrosine kinase) (VEGFR2) (Homo sapiens, UniProt P35968); experiment: SAFETYscan KINOMEscan binding assay; conditions: Inhibitor
T6 construct: host or cells: E. coli BL21-derived host (T7 phage) or HEK-293
T6 sequence (P35968 20-1356): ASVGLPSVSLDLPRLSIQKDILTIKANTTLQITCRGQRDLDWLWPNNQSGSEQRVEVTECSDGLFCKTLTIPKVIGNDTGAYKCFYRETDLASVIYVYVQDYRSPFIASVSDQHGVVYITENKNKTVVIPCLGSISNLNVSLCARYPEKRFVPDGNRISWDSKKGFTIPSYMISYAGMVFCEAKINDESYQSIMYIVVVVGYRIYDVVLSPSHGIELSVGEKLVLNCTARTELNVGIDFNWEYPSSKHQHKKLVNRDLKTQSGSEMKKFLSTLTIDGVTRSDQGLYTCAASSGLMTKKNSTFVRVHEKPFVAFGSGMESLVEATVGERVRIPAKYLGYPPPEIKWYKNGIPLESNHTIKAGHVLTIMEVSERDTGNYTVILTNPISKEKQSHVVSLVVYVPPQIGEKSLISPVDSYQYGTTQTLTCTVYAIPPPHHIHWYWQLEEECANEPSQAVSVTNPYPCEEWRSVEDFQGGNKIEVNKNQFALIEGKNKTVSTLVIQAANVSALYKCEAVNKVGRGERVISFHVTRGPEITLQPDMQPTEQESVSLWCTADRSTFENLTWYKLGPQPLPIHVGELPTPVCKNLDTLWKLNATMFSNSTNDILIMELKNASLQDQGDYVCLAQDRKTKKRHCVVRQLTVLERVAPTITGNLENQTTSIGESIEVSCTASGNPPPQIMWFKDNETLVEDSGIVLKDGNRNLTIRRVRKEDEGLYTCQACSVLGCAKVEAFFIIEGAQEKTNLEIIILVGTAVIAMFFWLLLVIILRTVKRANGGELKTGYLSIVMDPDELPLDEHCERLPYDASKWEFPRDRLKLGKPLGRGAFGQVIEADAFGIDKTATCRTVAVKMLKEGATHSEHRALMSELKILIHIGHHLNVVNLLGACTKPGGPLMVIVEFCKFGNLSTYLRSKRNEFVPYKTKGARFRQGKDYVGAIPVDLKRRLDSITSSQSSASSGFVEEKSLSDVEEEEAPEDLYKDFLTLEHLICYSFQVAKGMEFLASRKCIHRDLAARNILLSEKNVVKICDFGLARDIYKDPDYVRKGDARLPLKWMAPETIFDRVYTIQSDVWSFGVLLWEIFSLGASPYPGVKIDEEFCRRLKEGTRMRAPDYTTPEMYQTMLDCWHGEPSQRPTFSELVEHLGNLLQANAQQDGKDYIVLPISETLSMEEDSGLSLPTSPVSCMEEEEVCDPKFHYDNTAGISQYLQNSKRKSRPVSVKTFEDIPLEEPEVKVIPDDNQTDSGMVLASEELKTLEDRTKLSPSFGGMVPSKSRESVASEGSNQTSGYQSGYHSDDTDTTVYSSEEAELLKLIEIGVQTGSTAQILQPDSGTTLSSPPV

[13] = 10 μM, read-out: MCA-13 Max. Responce
[14] = read-out: RC50 (the source's name)

T1 sequence (P41143 whole entry): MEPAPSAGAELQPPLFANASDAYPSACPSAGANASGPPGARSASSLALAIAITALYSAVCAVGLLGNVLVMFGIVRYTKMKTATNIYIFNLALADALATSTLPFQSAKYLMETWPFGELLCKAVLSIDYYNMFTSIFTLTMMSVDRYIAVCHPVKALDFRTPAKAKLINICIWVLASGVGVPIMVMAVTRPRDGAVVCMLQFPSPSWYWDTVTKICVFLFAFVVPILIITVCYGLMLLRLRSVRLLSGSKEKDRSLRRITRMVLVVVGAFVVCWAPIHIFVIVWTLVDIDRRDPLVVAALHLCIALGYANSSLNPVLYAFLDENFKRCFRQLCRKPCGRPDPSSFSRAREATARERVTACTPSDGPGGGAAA

C=CCC1CCCC(CCC(=O)O)C1=C (stereo not drawn) [HU-MCA-13, 3-(3-allyl-2-methylenecyclohexyl)propanoic acid]
EC50 [1]: > 10 µM
IC50 [1]: > 10 µM
neurite outgrowth total length [2]: 600 μm
EC50 ([3]; Agonist): > 10 µM
IC50 ([3]; Antagonist): > 10 µM
EC50 ([4]; Agonist): > 10 µM
IC50 ([4]; Antagonist): > 10 µM
EC50 [5]: > 10 µM
IC50 [5]: > 10 µM
IC50 [6]: > 10 µM
inhibition at 10 µM ([6]; 10 μM, Inhibitor, Enzymatic, read-out: MCA-13 Max. Responce): 4.27%
bilirubin concentration versus DMSO [7]: small significant increase
blood count versus DMSO [7]: No difference
coagulation parameters versus DMSO [7]: No difference
electrolytes versus DMSO [7]: No difference
kidney and liver parameters versus DMSO [7]: lack of differences
increase of PGE2 production over control, untreated cultures [8]: 3–6 fold
EC50 [9]: > 10 µM
IC50 [9]: > 10 µM
inhibition at 10 µM (Cyclooxygenase 1 (COX 1); [13]): 25%
IC50 (Cyclooxygenase 1 (COX 1); [14]): > 10 µM
EC50 ([10]; Agonist): > 10 µM
IC50 ([10]; Antagonist): > 10 µM
EC50 [11]: > 10 µM
IC50 [11]: > 10 µM
inhibition at 10 µM [12, 13]: 21.7%
IC50 [12, 14]: > 10 µM
